Experiments:
RAGE mRNA = RAGE mRNA in pericytes by quantitative reverse transcription-polymerase chain reaction; assay type: cell-based, bovine; settings: 1 μM BPS treatment
Protocol: Pericytes were isolated from bovine retina and maintained in Dulbecco's modified Eagle medium containing 20% foetal calf serum. Next, the quantity of the AGE receptor RAGE mRNA present in the pericytes was analyzed by means of a quantitative reverse transcription-polymerase chain reaction method, in accordance with the technique described in Biochemical and Biophysical Research Communications, Vol. 213, 682-683, 1995.

[1] = test system: Pericytes isolated from bovine retina; test: Pericyte protecting action: suppression of pericyte proliferation attributable to AGE; assay type: cell-based; settings: FIG. 1
Protocol: Pericytes were isolated from bovine retina and maintained in Dulbecco's modified Eagle medium containing 20% foetal calf serum. The suppression of pericyte proliferation attributable to AGE was measured by adding 0.25 mg of AGE-BSA (prepared in Reference Example 1) to a culture plate into which 3.0×10^4 cells had been plated, then culturing at 37° C. for 5 days and performing measurements using a Packard Cyto Life. Separately, Beraprost sodium (BPS) was added at a final concentration of 0.1-10 μM prior to AGE addition. As controls, measurements were carried out in the same way for the case when treatment was carried out with AGE-BSA only and for the case where no treatment was carried out. For each group, the tests were carried out 10 times respectively.

- expression of RAGE (mRNA) (RAGE mRNA): expression of RAGE was suppressed
SMILES: CC#CCC(C)[C@H](O)/C=C/[C@@H]1[C@H]2c3cccc(CCCC(=O)O)c3O[C@H]2C[C@H]1O (relative stereo) [BPS, (±)-(1R*,2R*,3aS*,8bS*)-2,3,3a,8b-tetrahydro-2-hydroxy-1-[(E)-(3S*)-3-hydroxy-4-methyl-1-octen-6-ynyl]-1H-cyclopenta[b]benzofuran-5-butyric acid]
- improvement of AGE-induced suppression of pericyte proliferation ([1]; BPS 0.1-10 μM added prior to 0.25 mg AGE-BSA, 3.0×10^4 cells, 37° C., 5 days): improved in a concentration-dependent manner
- concentration at which improvement of suppression of proliferation was significant ([1]; BPS added prior to AGE-BSA, 5 days culture): 1 µM

From patent US20030013898A1, “Pericyte protective agent” (Toray Industries, Inc., priority 1998, published 2003)
